pIC50: −log10 of the molar value. Some results are limits rather than exact numbers.

This assay has as its target T1, PRMT5/MEP50 (Homo sapiens, UniProt O14744).
T1 construct: Expressed full-length human Flag-PRMT5/6His-MeP50 protein complex was purified; made in house; host or cells: Spodoptera frugiperda (SF9) insect cells, baculovirus (pDEST8)
In words: PRMT5 Biochemical Assay (PRMT5/MEP50 enzyme assay on peptide substrate, 3H-SAM Flashplate). The following applies: Table D-2; read-out: Biochemical IC50.

T1 sequence (O14744 with tags, fused parts or gaps): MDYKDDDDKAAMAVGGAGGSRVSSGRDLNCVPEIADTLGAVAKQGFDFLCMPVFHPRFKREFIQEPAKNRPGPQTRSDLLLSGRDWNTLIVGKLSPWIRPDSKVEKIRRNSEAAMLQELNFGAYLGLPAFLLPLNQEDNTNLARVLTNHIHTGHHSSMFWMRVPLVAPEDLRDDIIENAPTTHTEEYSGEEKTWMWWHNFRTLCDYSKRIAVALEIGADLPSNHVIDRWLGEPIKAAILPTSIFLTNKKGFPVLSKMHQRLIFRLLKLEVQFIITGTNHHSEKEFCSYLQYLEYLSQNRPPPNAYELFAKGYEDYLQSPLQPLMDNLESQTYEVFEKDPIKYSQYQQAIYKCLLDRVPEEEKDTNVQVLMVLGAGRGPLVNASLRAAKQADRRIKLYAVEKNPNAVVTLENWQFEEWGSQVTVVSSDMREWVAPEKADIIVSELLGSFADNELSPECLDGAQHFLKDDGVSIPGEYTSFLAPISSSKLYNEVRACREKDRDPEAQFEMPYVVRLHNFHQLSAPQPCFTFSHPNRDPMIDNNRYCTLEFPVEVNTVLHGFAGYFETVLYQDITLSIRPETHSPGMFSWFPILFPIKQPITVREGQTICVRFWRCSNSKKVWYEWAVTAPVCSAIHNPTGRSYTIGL
T1 sequence (Q9BQA1 with tags, fused parts or gaps partner limits assumed): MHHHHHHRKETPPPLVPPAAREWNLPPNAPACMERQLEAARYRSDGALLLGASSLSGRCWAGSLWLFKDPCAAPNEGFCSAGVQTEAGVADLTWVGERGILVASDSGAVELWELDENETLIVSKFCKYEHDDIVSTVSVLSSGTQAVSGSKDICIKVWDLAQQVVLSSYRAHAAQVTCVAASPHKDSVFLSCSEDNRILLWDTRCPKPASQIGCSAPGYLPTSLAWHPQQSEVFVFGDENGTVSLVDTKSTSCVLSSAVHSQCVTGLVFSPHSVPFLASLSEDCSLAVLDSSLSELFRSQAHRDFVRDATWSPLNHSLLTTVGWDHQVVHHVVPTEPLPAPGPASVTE

For the compound `OC(CNc1cc(-c2ncc3ccn(C4CCNCC4)c3n2)ccn1)CN1CCc2ccccc2C1` (stereo not shown) [Compound D255], the pIC50 was > 7.00.
To `CN1CCC(n2cnc3ccc(-c4ccnc(NCC(O)CN5CCc6ccccc6C5)c4)cc32)CC1` (stereo not shown) [Compound D252] belongs > 7.00.
To `CC(=O)N(CC(O)CN1CCc2ccccc2C1)c1cccc(-c2ccc3ncn(C)c3c2)c1` (stereo not shown) [Compound D273] belongs > 7.00; to `Cn1cc2ccc(-c3cc(NCC(O)CN4CCc5ccccc5C4)ncn3)cc2n1` (stereo not shown) [Compound D224], 6.00 to 7.00.
The value for `OC(COc1cccc(-c2ccc3nc[nH]c3c2)c1)CN1CCc2ccccc2C1` (stereo not shown) [Compound D83] was 6.00 to 7.00; that for `OC(COc1ccc(C2CCCNC2)cc1)CN1CCc2ccccc2C1` (stereo not shown) [Compound D47] was > 7.00; that for `CN1CCC(n2cnc3ccc(-c4ccnc(NCC(O)CN5CCc6ccccc6C5)c4)cc32)C1` (stereo not shown) [Compound D250] was > 7.00.
`Cn1cc2ccc(-c3ccnc(NCC(O)CN4CCc5ccccc5C4)c3)cc2n1` (stereo not shown) [Compound D236]: the pIC50 was > 7.00.
To `Cn1cnc2cc(-c3cccc(OCC(O)CN4CCc5ccccc5C4)c3)ccc21` (stereo not shown) [Compound D60] belongs 6.00 to 7.00.
To `CN1CCC(n2cnc3ccc(-c4cccc(OCC(O)CN5CCc6ccccc6C5)c4)cc32)CC1` (stereo not shown) [Compound D221] belongs > 7.00.
The value for `CC1c2ccccc2CCN1CC(O)COc1cccc(-c2ccc3ncn(C)c3c2)c1` (stereo not shown) [Compound D80] was 6.00 to 7.00; that for `CC(=O)N1CCC(n2ccc3cnc(-c4ccnc(NCC(O)CN5CCc6ccccc6C5)c4)nc32)CC1` (stereo not shown) [Compound D256] was > 7.00; that for `COC(COc1cccc(CNC2CCCC2)c1)CN1CCc2ccccc2C1` (stereo not shown) [Compound D32] was 5.00 to 6.00.
Consider `Cn1ncc2ccc(-c3ccnc(NCC(O)CN4CCc5ccccc5C4)c3)cc21` (stereo not shown) [Compound D226], for which the pIC50 is > 7.00.
To `CN1CCC(n2cnc3ccc(-c4cccc(OCC(O)CN5CCc6ccccc6C5)c4)cc32)C1` (stereo not shown) [Compound D219] belongs > 7.00; to `Cn1cnc2ccc(-c3cc(NCC(O)CN4CCc5ccccc5C4)ccn3)cc21` (stereo not shown) [Compound D217], 6.00 to 7.00.
With `OC(CNc1cc(-c2ccc3ncn(C4CCOCC4)c3c2)ccn1)CN1CCc2ccccc2C1` (stereo not shown) [Compound D251], the pIC50 was > 7.00.
As for `O[C@@H](COc1cccc(-c2cccc3cccnc23)c1)CN1CCc2ccccc2C1` [Compound D257], the pIC50 was > 7.00.
As to `O=C(Cn1ccc2cnc(-c3ccnc(NCC(O)CN4CCc5ccccc5C4)c3)nc21)N1CCCCC1` (stereo not shown) [Compound D246], the pIC50 is > 7.00.
The value for `OC(CNc1cccc(CNC2CCCC2)c1)CN1CCc2ccccc2C1` (stereo not shown) [Compound D39] was 6.00 to 7.00; that for `CN(CC(O)CN1CCc2ccccc2C1)c1cccc(CNC2CCCC2)c1` (stereo not shown) [Compound D53] was 6.00 to 7.00.
To `Cn1cnc2ccc(-c3cccc(OCC(O)CN4CCc5ccccc5C4)c3)cc21` (stereo not shown) [Compound D45] belongs > 7.00; to `Cn1cc2ccc(-c3cccc(NCC(O)CN4CCc5ccccc5C4)c3)nc2n1` (stereo not shown) [Compound D261], > 7.00; to `Cn1ccc2cnc(-c3ccnc(NCC(O)CN4CCc5ccccc5C4)c3)nc21` (stereo not shown) [Compound D239], > 7.00.
To `OC(COc1cccc(-c2cccc3[nH]cnc23)c1)CN1CCc2ccccc2C1` (stereo not shown) [Compound D223] belongs > 7.00; to `O=C(Cn1ccc2cnc(-c3ccnc(NCC(O)CN4CCc5ccccc5C4)c3)nc21)N1CCOCC1` (stereo not shown) [Compound D234], > 7.00.
Consider `OC(COc1cccc(-c2ccc3ncn(C4COC4)c3c2)c1)CN1CCc2ccccc2C1` (stereo not shown) [Compound D269], for which the pIC50 was > 7.00.
To `OC(COc1cccc(-c2ccc3ncn(C4CNC4)c3c2)c1)CN1CCc2ccccc2C1` (stereo not shown) [Compound D208] belongs 6.00 to 7.00; to `OC(CNc1cc(-c2ncc3ccn(C4CNC4)c3n2)ccn1)CN1CCc2ccccc2C1` (stereo not shown) [Compound D254], > 7.00; to `CC(=O)N1CCC(n2cnc3ccc(-c4ccnc(NCC(O)CN5CCc6ccccc6C5)c4)cc32)CC1` (stereo not shown) [Compound D242], 6.00 to 7.00.
The value for `O=C(Cn1cnc2ccc(-c3cccc(OCC(O)CN4CCc5ccccc5C4)c3)cc21)N1CCCC1` (stereo not shown) [Compound D263] was 6.00 to 7.00; that for `Cn1cnc2cc(-c3cc(NCC(O)CN4CCc5ccccc5C4)n[nH]3)ccc21` (stereo not shown) [Compound D272] was 6.00 to 7.00; that for `OC(COc1cccc(-c2ncc3ccn(C4CCNCC4)c3n2)c1)CN1CCc2ccccc2C1` (stereo not shown) [Compound D253] was > 7.00.
To `OC(COc1cccc(-c2cc(C(F)(F)F)ccc2Cl)c1)CN1CCc2ccccc2C1` (stereo not shown) [Compound D62] belongs 6.00 to 7.00.
`OC(COc1cccc(-c2ccc3c(c2)OCO3)c1)CN1CCc2ccccc2C1` (stereo not shown) [Compound D59]: the pIC50 is 6.00 to 7.00.
As for `CN1CCN(C(=O)Cn2ccc3cnc(-c4ccnc(NCC(O)CN5CCc6ccccc6C5)c4)nc32)CC1` (stereo not shown) [Compound D247], the pIC50 is > 7.00.
The value for `O=C(Cn1ccc2cnc(-c3ccnc(NCC(O)CN4CCc5ccccc5C4)c3)nc21)N1CCCC1` (stereo not shown) [Compound D233] was > 7.00; that for `O=C(Cn1cnc2ccc(-c3cccc(OCC(O)CN4CCc5ccccc5C4)c3)cc21)N1CCCCC1` (stereo not shown) [Compound D249] was 6.00 to 7.00.
The value for `CC(C)n1cnc2ccc(-c3cccc(OCC(O)CN4CCc5ccccc5C4)c3)cc21` (stereo not shown) [Compound D81] was 6.00 to 7.00; that for `Cn1ccc2ccc(-c3cc(NCC(O)CN4CCc5ccccc5C4)ncn3)cc21` (stereo not shown) [Compound D237] was 6.00 to 7.00; that for `OC(COc1cccc(-c2ccccc2Cl)c1)CN1CCc2ccccc2C1` (stereo not shown) [Compound D92] was 6.00 to 7.00.
To `OC(CNc1cccc(-c2cccc3[nH]cnc23)c1)CN1CCc2ccccc2C1` (stereo not shown) [Compound D235] belongs 6.00 to 7.00.
With `Cc1ncc2ccc(-c3cccc(OCC(O)CN4CCc5ccccc5C4)c3)cn12` (stereo not shown) [Compound D266], the pIC50 was > 7.00.
The value for `OC(COc1cccc(-c2ccc3c(c2)OCCO3)c1)CN1CCc2ccccc2C1` (stereo not shown) [Compound D85] was 6.00 to 7.00; that for `COc1ccc(-c2cccc(OCC(O)CN3CCc4ccccc4C3)c2)c(C)c1` (stereo not shown) [Compound D90] was 6.00 to 7.00; that for `O=C(Cn1ccc2cnc(-c3cccc(OCC(O)CN4CCc5ccccc5C4)c3)nc21)N1CCOCC1` (stereo not shown) [Compound D222] was 6.00 to 7.00.
Turning to `OC(COc1cccc(-c2ccc3ncn(C4CCNCC4)c3c2)c1)CN1CCc2ccccc2C1` (stereo not shown) [Compound D220], the pIC50 was > 7.00.
To `COc1ccc(-c2cccc(OCC(O)CN3CCc4ccccc4C3)c2)cc1` (stereo not shown) [Compound D75] belongs 6.00 to 7.00; to `COc1ccc(Cn2cnc3ccc(-c4cccc(OCC(O)CN5CCc6ccccc6C5)c4)cc32)cc1` (stereo not shown) [Compound D82], 6.00 to 7.00; to `CC(Oc1cccc(CNC2CCCC2)c1)C(O)CN1CCc2ccccc2C1` (stereo not shown) [Compound D49], 6.00 to 7.00.
The value for `O=C(Cn1cnc2ccc(-c3cccc(OCC(O)CN4CCc5ccccc5C4)c3)cc21)N1CCOCC1` (stereo not shown) [Compound D264] was 6.00 to 7.00; that for `OC(COc1cccc(-c2cnc3ccccc3c2)c1)CN1CCc2ccccc2C1` (stereo not shown) [Compound D89] was 6.00 to 7.00.
Turning to `CN1CC(n2cnc3ccc(-c4cccc(OCC(O)CN5CCc6ccccc6C5)c4)cc32)C1` (stereo not shown) [Compound D218], the pIC50 is > 7.00.
In the case of `CS(=O)(=O)c1ccc(-c2cccc(OCC(O)CN3CCc4ccccc4C3)c2)cc1` (stereo not shown) [Compound D63], the pIC50 was 6.00 to 7.00.
To `Cn1cnc2ccc(-c3ccnc(NC[C@H](O)CN4CCc5ccccc5C4)c3)cc21` [Compound D275] belongs > 7.00; to `CNC(=O)Cn1ccc2cnc(-c3ccnc(NCC(O)CN4CCc5ccccc5C4)c3)nc21` (stereo not shown) [Compound D245], > 7.00; to `OCc1cccc(-c2cccc(OCC(O)CN3CCc4ccccc4C3)c2)c1` (stereo not shown) [Compound D72], 6.00 to 7.00.
Take `Cn1cc2ccc(-c3cccc(OCC(O)CN4CCc5ccccc5C4)c3)nc2n1` (stereo not shown) [Compound D210]: the pIC50 is > 7.00.
Take `OC(COc1cccc(-c2ccccc2)c1)CN1CCc2ccccc2C1` (stereo not shown) [Compound D43]: the pIC50 is 6.00 to 7.00.
Regarding `Cn1ncc2cnc(-c3cccc(OCC(O)CN4CCc5ccccc5C4)c3)cc21` (stereo not shown) [Compound D248], the pIC50 was 6.00 to 7.00.
To `OC(COc1cccc(-c2cccc(F)c2F)c1)CN1CCc2ccccc2C1` (stereo not shown) [Compound D68] belongs 6.00 to 7.00.
For `OC(CNc1cc(-c2ccc3ncn(C4COC4)c3c2)ccn1)CN1CCc2ccccc2C1` (stereo not shown) [Compound D265], the pIC50 was > 7.00.
To `COc1cccc(-c2cccc(OCC(O)CN3CCc4ccccc4C3)c2)c1` (stereo not shown) [Compound D74] belongs 6.00 to 7.00; to `OC(COc1cccc(-c2cccc3c2oc2ccccc23)c1)CN1CCc2ccccc2C1` (stereo not shown) [Compound D86], 6.00 to 7.00; to `CN1CCN(C(=O)Cn2ccc3cnc(-c4cccc(OCC(O)CN5CCc6ccccc6C5)c4)nc32)CC1` (stereo not shown) [Compound D244], 6.00 to 7.00.
As to `OC(CNc1cc(-c2ccc3ncn(C4CCNC4)c3c2)ccn1)CN1CCc2ccccc2C1` (stereo not shown) [Compound D240], the pIC50 is > 7.00.
`O=C(c1ccc(Cn2nccc2-c2ccc(OCC(O)CN3CCc4ccccc4C3)cc2)cc1)N1CCCC1` (stereo not shown) [Compound D31]: the pIC50 is 6.00 to 7.00.
To `CC(=O)c1cccc(-c2cccc(OCC(O)CN3CCc4ccccc4C3)c2)c1` (stereo not shown) [Compound D67] belongs 6.00 to 7.00.
Take `CNC(=O)Cn1cnc2ccc(-c3cccc(OCC(O)CN4CCc5ccccc5C4)c3)cc21` (stereo not shown) [Compound D262]: the pIC50 was 6.00 to 7.00.
To `OC(COc1cccc(-c2ccc3nn[nH]c3c2)c1)CN1CCc2ccccc2C1` (stereo not shown) [Compound D84] belongs 6.00 to 7.00; to `CN1CCN(C(=O)Cn2cnc3ccc(-c4cccc(OCC(O)CN5CCc6ccccc6C5)c4)cc32)CC1` (stereo not shown) [Compound D270], 6.00 to 7.00; to `OC(COc1cccc(-c2cccc3cccnc23)c1)CN1CCc2ccccc2C1` (stereo not shown) [Compound D65], > 7.00.
To `OC(COc1cccc(-c2ccc3cn[nH]c3c2)c1)CN1CCc2ccccc2C1` (stereo not shown) [Compound D58] belongs 6.00 to 7.00.

Values taken from patent US20150344457A1, “METHODS OF INHIBITING PRMT5” (EPIZYME, INC., priority 2012, published 2015).
